This assay concerns the target T1, caspase-6 (Homo sapiens, UniProt P55212).
T1 construct: Residues 24-179 and 194-293 from caspase-6 cDNA (Origene) were cloned into pET-24b and pET-23b vectors; 6x histidine tag (C); made in house; host or cells: E. coli BL21 (DE3) pLysS
T1 sequence (P55212 24-179): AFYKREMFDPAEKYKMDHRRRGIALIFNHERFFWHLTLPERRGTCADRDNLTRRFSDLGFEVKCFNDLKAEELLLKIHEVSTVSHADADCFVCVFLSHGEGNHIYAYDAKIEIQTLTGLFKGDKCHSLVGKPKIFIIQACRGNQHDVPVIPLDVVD
T1 sequence (P55212 194-293): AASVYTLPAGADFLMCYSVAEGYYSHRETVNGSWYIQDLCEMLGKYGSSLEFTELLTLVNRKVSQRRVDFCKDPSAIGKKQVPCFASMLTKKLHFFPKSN
The assay can be described thus: Caspase-6 enzymatic assay with fluorogenic tetrapeptide substrates. It is filed as biochemical. The procedure: The in vitro enzymatic caspase assays utilize synthetic tetrapeptide substrates labeled with the fluorophores Rhodamine110 (R110) or 7-amino-4-methylcoumarin (AMC) at the P1 aspartic acid (Asp) residue. All assays were performed in 384-well plates in 12 µL reaction volume consisting of enzyme, substrate and indicated concentration of inhibitor or DMSO in assay buffer (50 mM HEPES [pH 7.0], 25 mM MgSO4, 0.5 mM EGTA, 5 mM Glutathione (GSH), 0.01% Triton X-100 containing 0.1% Bovine Gamma Globulin (BGG)). All inhibitors were serially diluted in 100% DMSO prior to dilution in assay buffer and transfer to assay plate. DMSO was diluted into assay buffer similarly for blank wells (no enzyme or compound) and final DMSO concentration was 1%. The concentration of caspase-6 used in enzymatic reactions typically varied between 1–10 nM depending on substrate used. Unless otherwise indicated, substrate concentration was within 3-fold of the determined Kmapparent (5 µM (Ac-VEID)2R110 [Kmapp = 8 µM]; 5 µM (Ac-DEVD)2R110 [Kmapp = 8 µM]; 25 µM (Ac-IETD)2R110 [Kmapp = 70 µM]; 25 µM (Ac-WEHD)2R110 [Kmapp = 70 µM]; 10µM Ac-VEID-AMC [Kmapp = 16µM]; 5 µM Ac-VEID-R110 [Kmapp = 8 µM]). The concentration of substrate utilized in selectivity assays for each caspase isoform was also held as close to Kmapparent as reasonably achievable (Table S1). Caspases-3 and -7 were expressed and purified at Genentech as the catalytic domain consisting of large p20 and small p10 subunits without prodomain. For all caspase enzymatic assays, the reaction plate was incubated at room temperature for 40 minutes and then read on Envision (Perkin Elmer) fluorescent plate reader at excitation/emission wavelengths of 485/535 nm (R110) or 350/450 nm (AMC). […]
The endpoint fluorescent emission (RFU) in each well was plotted as a function of inhibitor concentration and the 50% inhibition (IC50) values were determined using a nonlinear least squares fit of the data to a four parameter equation using Prism 5.0 software (GraphPad Software, San Diego, CA). […] Ki values for Compound 3 were calculated using this equation: Ki = IC50/(Km/[S] +1). Concentration-response curves for each inhibitor were normalized to zero and 100% based on no enzyme or DMSO control, respectively. For steady-state kinetic analysis, initial reaction velocity (RFU/minute) was plotted against substrate concentration at each inhibitor concentration and the data was fit to a hyperbolic Michaelis-Menten model using Prism 5.0 software. Km (µM) and Vmax (RFU/minute) were calculated by using this equation: v = Vmax • [S]/Km+[S] where v = initial reaction velocity at indicated substrate concentration (S). Vmax values were normalized to zero and 100% based on no enzyme or DMSO control, respectively.
Expression and purification of caspase-6 for enzymatic assays: Human caspase-6 was expressed as the mature enzyme using a split construct. Residues 24-179 and 194-293 from caspase-6 cDNA (Origene) were cloned into pET-24b and pET-23b vectors (Novagen) respectively; the small subunit contained a C-terminal 6x histidine tag. Vectors were cotransfected into the E.coli strain BL21 (DE3) pLysS (Stratagene). Cells were grown from a single colony in 6L of 2xYT supplemented with ampicillin and kanamycin at 37 °C to an OD of ~ 0.5 and were subsequently cooled to 16 °C before overnight induction with 0.2 mM IPTG. Cells were harvested by centrifugation, resuspended in 100 mM NaCl, 100 mM Tris, pH 8.0, and lysed.

This is an account of results in publication PMC3515450, “Mechanistic and Structural Understanding of Uncompetitive Inhibitors of Caspase-6” (PLoS ONE, 2012).

Structures are written as SMILES. Read-outs that look alike come from different tables or passages of the source.

The Ki is the dissociation constant of the complex between target and ligand, obtained from inhibition or displacement. For `COc1ccc(-c2cc(C(=O)N[C@@H](CO)Cc3cccc(C#N)c3)co2)cc1OC` [Compound 3], the Ki ((VEID)2R110 substrate, calculated from IC50) is 4 nM. Besides, the “fold weaker with (DEVD)2R110 than with (VEID)2R110 substrate” value (caspase-6) is about 44 fold. Moreover, the IC50 reads like this: (caspase-6, (DEVD)2R110 substrate, read-out: IC50) 481 nM; (caspase-6, (IETD)2R110 substrate, read-out: inhibition of (IETD)2R110 cleavage) about 100000 nM; (caspase-6, (WEHD)2R110 substrate, not inhibited up to this concentration, read-out: inhibition of (WEHD)2R110 cleavage) over 100000 nM; (caspase-6, monovalent VEID-AMC substrate, read-out: IC50) 14000 nM; (caspase-6 cleavage of (VEID)2R110 substrate, read-out: IC50 (potency)) 11 nM. In addition, the “binding efficiency index (BEI; pIC50/molecular weight)” value (caspase-6, (VEID)2R110) is on record as 19.7. Besides, the “selectivity for caspase-6 cleavage of (VEID)2R110 compared to other caspase family members tested” value (versus caspases-3 and -7) was “near absolute selectivity”.
